Measured values from BindingDB's records for doi:10.1021/jm7011563 (University of Siena, 2008).
pIC50: −log10 of the molar value.

Molecular target: T1, Type-1 angiotensin II receptor A (Rattus norvegicus, UniProt P25095)
T1 sequence (P25095 whole entry): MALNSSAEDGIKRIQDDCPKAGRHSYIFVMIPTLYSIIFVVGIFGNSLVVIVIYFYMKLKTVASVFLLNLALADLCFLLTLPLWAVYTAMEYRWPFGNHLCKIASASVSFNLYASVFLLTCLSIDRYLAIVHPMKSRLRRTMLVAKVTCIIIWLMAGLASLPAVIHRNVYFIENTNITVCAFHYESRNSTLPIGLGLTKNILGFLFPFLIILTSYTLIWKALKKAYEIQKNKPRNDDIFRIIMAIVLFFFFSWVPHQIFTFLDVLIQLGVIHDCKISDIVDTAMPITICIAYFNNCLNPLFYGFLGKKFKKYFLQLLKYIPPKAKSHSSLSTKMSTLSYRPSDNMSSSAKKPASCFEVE
Assay: Displacement of [125I]Sar1,Ile8-Ang2 from AT1 receptor in Wistar rat hepatic membrane

pIC50	SMILES
< 5.00	CCc1c2[nH]cccc-2c(=O)n1Cc1ccc(-c2ccccc2-c2nnn[nH]2)cc1
< 5.00	O=c1c2ccc[nH]c-2cn1Cc1ccc(-c2ccccc2-c2nnn[nH]2)cc1
